Data taken from patent publication US20230227427A1, “IL-17A MODULATORS” (SANOFI, priority 2010, published 2023).

The molecules below were run against T1, human recombinant IL-17A (Homo sapiens, UniProt Q16552) (assay: IL-17A AlphaLISA assay (block binding of IL-17A to its receptor IL-17RA)). Conditions: compounds pre-incubated with the IL-17A for 30 min (indicated by * in Table A); read-out: AlphaLISA pIC50 (converted).
T1 construct: purchased R&D Systems 7955-IL/CF
T1 sequence (Q16552 24-155): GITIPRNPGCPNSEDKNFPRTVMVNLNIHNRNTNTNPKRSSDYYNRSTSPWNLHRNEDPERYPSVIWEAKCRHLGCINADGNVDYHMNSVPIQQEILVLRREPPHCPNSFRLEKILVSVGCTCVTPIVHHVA
Summary of the method: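 PBS with 0.05% Tween-20 and 0.1% BSA. IL-17A stock 7.5 nM, IL-17RA/Fc stock 5 nM; compound–cytokine pre-incubation 24 h at RT, or 30 min where marked, then 90 min with receptor. pIC50 from 4-parameter logistic AlphaLISA signal, normalised to DMSO and 6 μM reference inhibitor.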

Going from `Cc1nocc1C(=O)N[C@H](C(=O)Nc1ccc(-c2c(C)nnn2C)cn1)[C@H]1CC[C@H](C)CC1` [Example 160, N—((S)-2-((5-(1,4-dimethyl-1H-1,2,3-triazol-5-yl)pyridin-2-yl)amino)-1-((1r,4S)-4-methylcyclohexyl)-2-oxoethyl)-3-methylisoxazole-4-carboxamide] to `CCc1nocc1C(=O)N[C@H](C(=O)Nc1ccc(-c2c(C)nnn2C)cn1)[C@H]1CC[C@H](C)CC1` [Example 188, N—((S)-2-((5-(1,4-dimethyl-1H-1,2,3-triazol-5-yl)pyridin-2-yl)amino)-1-((1r,4S)-4-methylcyclohexyl)-2-oxoethyl)-3-ethylisoxazole-4-carboxamide], the IC50 falls from 200 nM to 100 nM (2-fold).

`CCn1nccc1C(=O)N[C@H](C(=O)Nc1ccc(-c2c(C)n[nH]c2C)nc1)[C@H]1CC[C@H](C)CC1` [Example 212, N—((S)-2-((6-(3,5-dimethyl-1H-pyrazol-4-yl)pyridin-3-yl)amino)-1-((1r,4S)-4-methylcyclohexyl)-2-oxoethyl)-1-ethyl-1H-pyrazole-5-carboxamide] and `CCc1nocc1C(=O)N[C@H](C(=O)Nc1ccc(-c2c(C)noc2C)nc1)[C@H]1CC[C@H](C)CC1` [Example 203, N—((S)-2-((6-(3,5-dimethylisoxazol-4-yl)pyridin-3-yl)amino)-1-((1r,4S)-4-methylcyclohexyl)-2-oxoethyl)-3-ethylisoxazole-4-carboxamide] are within 1.5-fold of each other in IC50: 100 nM for the first, 79.4 nM for the second.

`Cc1nn(C)c(-c2ccc(NC(=O)[C@@H](NC(=O)c3ccnn3C)C3CCCCCC3)nc2)c1C` [Example 195, (S)—N-(1-cycloheptyl-2-oxo-2-((5-(1,3,4-trimethyl-1H-pyrazol-5-yl)pyridin-2-yl)amino)ethyl)-1-methyl-1H-pyrazole-5-carboxamide] and `Cc1nn(C)c(C)c1-c1ccc(NC(=O)[C@@H](NC(=O)c2ccnn2C)C2CCCCCC2)nc1` [Example 216, (S)—N-(1-cycloheptyl-2-oxo-2-((5-(1,3,5-trimethyl-1H-pyrazol-4-yl)pyridin-2-yl)amino)ethyl)-1-methyl-1H-pyrazole-5-carboxamide] are the same in IC50: 501 nM for the first, 501 nM for the second.

First: COCc1nocc1C(=O)N[C@H](C(=O)Nc1ccc(-c2c(C)cnn2C)cn1)C1CCCCCC1 [Example 137, (S)—N-(1-Cycloheptyl-2-((5-(1,4-dimethyl-1H-pyrazol-5-yl)pyridin-2-yl)amino)-2-oxoethyl)-3-(methoxymethyl)isoxazole-4-carboxamide]
Second: CCc1nocc1C(=O)N[C@H](C(=O)Nc1ccc(-c2c(C)cnn2C)cn1)[C@H]1CC[C@H](C)CC1 [Example 127, N—((S)-2-((5-(1,4-Dimethyl-1H-pyrazol-5-yl)pyridin-2-yl)amino)-1-((1r,4S)-4-methylcyclohexyl)-2-oxoethyl)-3-ethylisoxazole-4-carboxamide]
The IC50 of the first is 5-fold higher: 200 nM for the first, 39.8 nM for the second.

Going from `CCc1nocc1C(=O)N[C@H](C(=O)Nc1ccc(-c2c(C)cnn2C)cn1)C1CCC(F)(F)CC1` [Example 144, (S)—N-(1-(4,4-difluorocyclohexyl)-2-((5-(1,4-dimethyl-1H-pyrazol-5-yl)pyridin-2-yl)amino)-2-oxoethyl)-3-ethylisoxazole-4-carboxamide] to `Cc1cnn(C)c1-c1ccc(NC(=O)[C@@H](NC(=O)c2conc2C(F)(F)F)[C@H]2CC[C@H](C)CC2)nc1` [Example 194, N—((S)-2-((5-(1,4-dimethyl-1H-pyrazol-5-yl)pyridin-2-yl)amino)-1-((1r,4S)-4-methylcyclohexyl)-2-oxoethyl)-3-(trifluoromethyl)isoxazole-4-carboxamide], the IC50 falls from 794 nM to 158 nM (5-fold).

`Cc1noc(C)c1-c1ccc(NC(=O)[C@@H](NC(=O)c2ccnn2C)C2CCCCCC2)nc1` [Example 115, (S)—N-(1-Cycloheptyl-2-((5-(3,5-dimethylisoxazol-4-yl)pyridin-2-yl)amino)-2-oxoethyl)-1-methyl-1H-pyrazole-5-carboxamide] and `CCc1nocc1C(=O)N[C@H](C(=O)Nc1ccc(-c2c(C)noc2C)cn1)C1CCCCC1` [Example 114, (S)—N-(1-Cyclohexyl-2-((5-(3,5-dimethylisoxazol-4-yl)pyridin-2-yl)amino)-2-oxoethyl)-3-ethylisoxazole-4-carboxamide] are within 1.5-fold of each other in IC50: 126 nM for the first, 158 nM for the second.

First: Cc1nccc(-c2ccc(NC(=O)[C@@H](NC(=O)c3ccnn3C)[C@H]3CC[C@H](C)CC3)nc2)c1C [Example 152, N—((S)-2-((2′,3′-dimethyl-[3,4′-bipyridin]-6-yl)amino)-1-((1r,4S)-4-methylcyclohexyl)-2-oxoethyl)-1-methyl-1H-pyrazole-5-carboxamide]
Second: Cc1n[nH]c(C)c1-c1ccc(NC(=O)C(NC(=O)c2ccnn2C)C2CCCCCCC2)cc1 (stereo not drawn) [Example 104, N-(1-Cyclooctyl-2-((4-(3,5-dimethyl-1H-pyrazol-4-yl)phenyl)amino)-2-oxoethyl)-1-methyl-1H-pyrazole-5-carboxamide]
The IC50 of the first is 10-fold higher: 794 nM for the first, 79.4 nM for the second.

For `CCc1nocc1C(=O)N[C@H](C(=O)Nc1ccc(-c2c(C)n[nH]c2C)nc1)C1CCCCCC1` [Example 210, (S)—N-(1-cycloheptyl-2-((6-(3,5-dimethyl-1H-pyrazol-4-yl)pyridin-3-yl)amino)-2-oxoethyl)-3-ethylisoxazole-4-carboxamide], the IC50 was 63.1 nM.

Same assay, conditions: compounds pre-incubated with the IL-17A for 24 h at room temperature; read-out: AlphaLISA pIC50 (converted)

`COc1c[n+]([O-])cc(F)c1-c1ccc(NC(=O)[C@@H](NC(=O)c2ccnn2C)C(c2ccccc2)c2ccccc2)cc1` [Example 28, (S)-3-fluoro-5-methoxy-4-(4-(2-(1-methyl-1H-pyrazole-5-carboxamido)-3,3-diphenylpropanamido)phenyl)pyridine 1-oxide] and `COc1cncc(F)c1-c1ccc(NC(=O)[C@@H](NC(=O)c2ccnn2C)C(c2ccccc2)c2ccccc2)cc1` [Example 10, (S)—N-(1-((4-(3-fluoro-5-methoxypyridin-4-yl)phenyl)amino)-1-oxo-3,3-diphenylpropan-2-yl)-1-methyl-1H-pyrazole-5-carboxamide] are the same in IC50: 7.94 nM for the first, 7.94 nM for the second.

First: Cn1nccc1C(=O)N[C@H](C(=O)Nc1ccc(-c2ccncc2CO)cc1)C(c1ccccc1)c1ccccc1 [Example 42, (S)—N-(1-((4-(3-(hydroxymethyl)pyridin-4-yl)phenyl)amino)-1-oxo-3,3-diphenylpropan-2-yl)-1-methyl-1H-pyrazole-5-carboxamide]
Second: COc1cnccc1-c1ccc(NC(=O)[C@@H](NC(=O)c2ccnn2C(F)F)C(c2ccccc2)c2ccccc2)cc1 [Example 46, (S)-1-(difluoromethyl)-N-(1-((4-(3-methoxypyridin-4-yl)phenyl)amino)-1-oxo-3,3-diphenylpropan-2-yl)-1H-pyrazole-5-carboxamide]
The IC50 of the first is 2-fold lower: 50.1 nM for the first, 100 nM for the second.

First: Cn1nccc1C(=O)N[C@H](C(=O)Nc1ccc(-c2c[nH]c(=O)c3[nH]cnc23)c(F)c1)C(c1ccccc1)c1ccccc1 [Example 69, (S)—N-(1-((3-fluoro-4-(4-oxo-4,5-dihydro-3H-imidazo[4,5-c]pyridin-7-yl)phenyl)amino)-1-oxo-3,3-diphenylpropan-2-yl)-1-methyl-1H-pyrazole-5-carboxamide]
Second: Cn1nccc1C(=O)N[C@H](C(=O)Nc1ccc(-c2c[nH]c(=O)c3[nH]ccc23)c(F)c1)C(c1ccccc1)c1ccccc1 [Example 68, (S)—N-(1-((3-fluoro-4-(7-oxo-6,7-dihydro-1H-pyrrolo[2,3-c]pyridin-4-yl)phenyl)amino)-1-oxo-3,3-diphenylpropan-2-yl)-1-methyl-1H-pyrazole-5-carboxamide]
The IC50 of the first is 10-fold higher: 79.4 nM for the first, 7.94 nM for the second.

Compared with `Cc1cnccc1-c1ccc(NC(=O)[C@@H](NC(=O)c2ccnn2C)C(c2ccccc2)c2ccccc2)cc1F` [Example 15, (S)—N-(1-((3-fluoro-4-(3-methylpyridin-4-yl)phenyl)amino)-1-oxo-3,3-diphenylpropan-2-yl)-1-methyl-1H-pyrazole-5-carboxamide], `Cc1c(-c2ccc(NC(=O)[C@@H](NC(=O)c3ccnn3C)C(c3ccccc3)c3ccccc3)cc2F)ccc(=O)n1C` [Example 16, (S)—N-(1-((4-(1,2-dimethyl-6-oxo-1,6-dihydropyridin-3-yl)-3-fluorophenyl)amino)-1-oxo-3,3-diphenylpropan-2-yl)-1-methyl-1H-pyrazole-5-carboxamide] is 3.2-fold lower in IC50: 50.1 nM for the first, 15.8 nM for the second.

Going from `Cc1cncc(C)c1-c1ccc(NC(=O)[C@@H](NC(=O)c2ccnn2C)C(c2ccccc2)c2ccccc2)cc1Cl` [Example 55, (S)—N-(1-((3-chloro-4-(3,5-dimethylpyridin-4-yl)phenyl)amino)-1-oxo-3,3-diphenylpropan-2-yl)-1-methyl-1H-pyrazole-5-carboxamide] to `Cn1nccc1C(=O)N[C@H](C(=O)Nc1ccc(-c2ccc(=O)[nH]n2)c(F)c1)C(c1ccccc1)c1ccccc1` [Example 58, (S)—N-(1-((3-fluoro-4-(6-oxo-1,6-dihydropyridazin-3-yl)phenyl)amino)-1-oxo-3,3-diphenylpropan-2-yl)-1-methyl-1H-pyrazole-5-carboxamide], the IC50 rises from 100 nM to 316 nM (3.2-fold).

Going from `Cc1noc(C)c1-c1ccc(NC(=O)[C@@H](NC(=O)c2ccnn2C)[C@H]2CC[C@H](C)CC2)nc1` [Example 97, N—((S)-2-((5-(3,5-Dimethylisoxazol-4-yl)pyridin-2-yl)amino)-1-((1r,4S)-4-methylcyclohexyl)-2-oxoethyl)-1-methyl-1H-pyrazole-5-carboxamide] to `Cn1nccc1C(=O)N[C@H](C(=O)Nc1ccc(-c2cnc3ncccn23)cc1)C(c1ccccc1)c1ccccc1` [Example 41, (S)—N-(1-((4-(imidazo[1,2-a]pyrimidin-3-yl)phenyl)amino)-1-oxo-3,3-diphenylpropan-2-yl)-1-methyl-1H-pyrazole-5-carboxamide], the IC50 rises from 79.4 nM to 200 nM (2.5-fold).
